Tested on: T1, polyphenol oxidase (PPO), cresolase activity; most likely isoform XP_010647098.3
T1 construct: pooled fractions A7 and A8; immunoreactive bands 40, 52 and faint 70 kDa; proteolytic processing possible
Assay: Michaelis-Menten / double reciprocal plot; piceatannol formation by LC-MS MRM
Format: biochemical, Vitis vinifera
Conditions: o-hydroxylation (cresolase) to piceatannol; O2, 1 mM ascorbate, 0.1 M potassium phosphate pH 7.5, room temperature, 90 min, 5 to 200 µM substrate; partially purified, mixture of A7 and A8 fractions

- Km: 118 ± 49.8 µM
Compound: Oc1ccc(/C=C/c2cc(O)cc(O)c2)cc1 [trans-resveratrol, 3,4′,5-trihydroxy-trans-stilbene]
